Source: patent publication US20240067693A1, “POLYPEPTIDES AND USES THEREOF” (MEDIMMUNE LIMITED, priority 2020, published 2024)
Numbered stars: 1 amine (or outer) side, 2 acyl side, 3 side chain; on linkers, the order of the positions; unused ones are H or OH. Bridge positions count the residues as written; N and C are the ends. Square brackets hold non-standard residues; d marks the D form. Side chains are listed from the residue outwards. Peptide text beside a SMILES is read from it. * marks the point of attachment. C18 diacid = O=C(O)CCCCCCCCCCCCCCCCC(=O)*; γGlu = O=C(O)[C@H](CCC(=O)[*:2])N[*:1]; Aib = CC(C)(N)C(=O)O

Key:
[1] = target: T1, human amylin receptor (calcitonin receptor co-expressed with receptor activity modifying protein, RAMP3) (hAMYR3) (Homo sapiens, UniProt O60896+P30988); experiment: cAMP production in 1321N1 cells with stable recombinant expression of human amylin receptor (hAMYR3); assay type: cell-based; settings: for Ratio (selectivity hAMYR vs hCTR, ratio of EC50 values at the two receptors): EC50 hCTR / EC50 hAMYR3; for EC50: cAMP, 1321N1 cells, assay buffer with 0.1% BSA, read-out: EC50 (pM) hAMYR3
T1 construct: expressed in transfected cells
T1 sequence (P30988 25-474): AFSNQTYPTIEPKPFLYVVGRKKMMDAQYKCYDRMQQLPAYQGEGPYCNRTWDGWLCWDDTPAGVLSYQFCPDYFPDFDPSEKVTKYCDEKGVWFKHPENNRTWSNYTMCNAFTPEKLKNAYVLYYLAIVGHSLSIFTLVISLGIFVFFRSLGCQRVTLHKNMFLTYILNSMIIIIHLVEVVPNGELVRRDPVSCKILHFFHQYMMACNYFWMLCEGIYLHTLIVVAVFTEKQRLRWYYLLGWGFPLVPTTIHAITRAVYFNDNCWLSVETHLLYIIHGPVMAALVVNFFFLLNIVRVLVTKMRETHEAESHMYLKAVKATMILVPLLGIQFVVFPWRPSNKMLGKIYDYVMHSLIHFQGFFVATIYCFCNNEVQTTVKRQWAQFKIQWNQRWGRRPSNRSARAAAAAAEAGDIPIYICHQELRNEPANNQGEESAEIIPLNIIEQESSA
T1 sequence (O60896 24-148 partner): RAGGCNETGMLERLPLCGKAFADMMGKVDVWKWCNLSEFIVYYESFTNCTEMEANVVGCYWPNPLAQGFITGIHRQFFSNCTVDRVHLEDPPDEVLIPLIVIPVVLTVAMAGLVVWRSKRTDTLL
How it was run: (§1)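 Receptor-expressing cells (human receptors in 1321N1, rat receptors in HEK) incubated 30 min at room temperature with peptide in HBSS/HEPES pH 7.4, 0.1% BSA, 0.5 mM IBMX. cAMP read by HTRF; EC50 from 4-parameter fit as % of maximal amylin or calcitonin response.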

[2] = target: T2, human calcitonin receptor (hCTR) (Homo sapiens, UniProt P30988); experiment: cAMP production in 1321N1 cells with stable recombinant expression of human calcitonin receptor (hCTR); assay type: cell-based; settings: cAMP, 1321N1 cells, assay buffer with 0.1% BSA; read-out: EC50 (pM) hCTR
T2 construct: expressed in transfected cells
T2 sequence (P30988 25-474): T1 sequence (P30988 25-474)
How it was run: as §1

| Ratio (selectivity hAMYR vs hCTR, ratio of EC50 values at the two receptors) [1] | EC50 [1] [pM] | EC50 [2] [pM] | SMILES |
| --- | --- | --- | --- |
| 12 | 334 | 4140 | CC[C@H](C)[C@H](NC(=O)[C@@H]1CCCN1C(=O)CNC(=O)[C@H](Cc1ccccc1)NC(=O)[C@H](CC(N)=O)NC(=O)C(C)(C)NC(=O)[C@H](CO)NC(=O)[C@H](CO)NC(=O)[C@H](Cc1c[nH]cn1)NC(=O)[C@@H](NC(=O)[C@H](CC(C)C)NC(=O)[C@H](Cc1ccccc1)NC(=O)[C@H](CC(N)=O)NC(=O)[C@H](C)NC(=O)[C@H](CC(C)C)NC(=O)[C@H](CCCNC(=N)N)NC(=O)[C@H](CCC(N)=O)NC(=O)[C@@H](NC(=O)[C@H](C)NC(=O)[C@@H]1CSSC[C@H](NC(=O)[C@@H](N)CCCCNC(=O)CC[C@H](NC(=O)CC[C@H](NC(=O)CCCCCCCCCCCCCCCCC(=O)O)C(=O)O)C(=O)O)C(=O)N[C@@H](CC(N)=O)C(=O)N[C@@H]([C@@H](C)O)C(=O)N[C@@H](C)C(=O)N[C@@H]([C@@H](C)O)C(=O)N1)[C@@H](C)O)C(C)C)C(=O)N[C@@H](CC(C)C)C(=O)N1CCC[C@H]1C(=O)N1CCC[C@H]1C(=O)N[C@H](C(=O)N[C@@H](CCC(=O)O)C(=O)N[C@H](C(=O)NCC(=O)N[C@@H](CO)C(=O)N[C@@H](CC(N)=O)C(=O)N[C@H](C(=O)N[C@@H](Cc1ccc(O)cc1)C(N)=O)[C@@H](C)O)C(C)C)[C@@H](C)O [Peptide 49, K(γE-γE-C18diacid)[CNTATC]ATQRLANFLVHSS(Aib)NFGPILPPTEVGSNTY-amide] (H-K([γGlu-γGlu-C18 diacid])CNTATCATQRLANFLVHSS[Aib]NFGPILPPTEVGSNTY-NH2; disulfide 2-7) |
| 54 | 349 | 18900 | CC[C@H](C)[C@H](NC(=O)[C@@H]1CCCN1C(=O)CNC(=O)[C@H](Cc1ccccc1)NC(=O)[C@H](CC(N)=O)NC(=O)C(C)(C)NC(=O)[C@H](CO)NC(=O)[C@H](CO)NC(=O)[C@H](Cc1c[nH]cn1)NC(=O)[C@H](CCCNC(=N)N)NC(=O)[C@H](CC(C)C)NC(=O)[C@H](Cc1ccccc1)NC(=O)[C@H](CC(N)=O)NC(=O)[C@H](C)NC(=O)[C@H](CC(C)C)NC(=O)[C@H](CCCNC(=N)N)NC(=O)[C@H](CCC(N)=O)NC(=O)[C@@H](NC(=O)[C@H](C)NC(=O)[C@@H]1CSSC[C@H](NC(=O)[C@@H](N)CCCCNC(=O)CC[C@H](NC(=O)CC[C@H](NC(=O)CCCCCCCCCCCCCCCCC(=O)O)C(=O)O)C(=O)O)C(=O)N[C@@H](CC(N)=O)C(=O)N[C@@H]([C@@H](C)O)C(=O)N[C@@H](C)C(=O)N[C@@H]([C@@H](C)O)C(=O)N1)[C@@H](C)O)C(=O)N[C@@H](CC(C)C)C(=O)N1CCC[C@H]1C(=O)N1CCC[C@H]1C(=O)N[C@H](C(=O)N[C@@H](CCC(=O)O)C(=O)N[C@H](C(=O)NCC(=O)N[C@@H](CO)C(=O)N[C@@H](CC(N)=O)C(=O)N[C@H](C(=O)N[C@@H](Cc1ccc(O)cc1)C(N)=O)[C@@H](C)O)C(C)C)[C@@H](C)O [Peptide 50, K(γE-γE-C18diacid)[CNTATC]ATQRLANFLRHSS(Aib)NFGPILPPTEVGSNTY-amide] (H-K([γGlu-γGlu-C18 diacid])CNTATCATQRLANFLRHSS[Aib]NFGPILPPTEVGSNTY-NH2; disulfide 2-7; N-terminus assumed) |
| 13 | 126 | 1640 | CC[C@H](C)[C@H](NC(=O)[C@@H]1CCCN1C(=O)CNC(=O)[C@H](Cc1ccccc1)NC(=O)[C@H](CC(N)=O)NC(=O)C(C)(C)NC(=O)[C@H](CO)NC(=O)[C@H](CO)NC(=O)[C@H](Cc1c[nH]cn1)NC(=O)[C@H](CO)NC(=O)[C@H](CC(C)C)NC(=O)[C@H](Cc1ccccc1)NC(=O)[C@H](CC(N)=O)NC(=O)[C@H](C)NC(=O)[C@H](CC(C)C)NC(=O)[C@H](CCCNC(=N)N)NC(=O)[C@H](CCC(N)=O)NC(=O)[C@@H](NC(=O)[C@H](C)NC(=O)[C@@H]1CSSC[C@H](NC(=O)[C@H](CCCCN)NC(=O)[C@@H](N)CCCCNC(=O)CC[C@H](NC(=O)CCCCCCCCCCCCCCCCC(=O)O)C(=O)O)C(=O)N[C@@H](CC(N)=O)C(=O)N[C@@H]([C@@H](C)O)C(=O)N[C@@H](C)C(=O)N[C@@H]([C@@H](C)O)C(=O)N1)[C@@H](C)O)C(=O)N[C@@H](CC(C)C)C(=O)N1CCC[C@H]1C(=O)N1CCC[C@H]1C(=O)N[C@H](C(=O)N[C@@H](Cc1c[nH]cn1)C(=O)N[C@H](C(=O)NCC(=O)N[C@@H](CO)C(=O)N[C@@H](CC(N)=O)C(=O)N[C@H](C(=O)N[C@@H](Cc1ccc(O)cc1)C(N)=O)[C@@H](C)O)C(C)C)[C@@H](C)O [Peptide 51, K(γE-C18diacid)K[CNTATC]ATQRLANFLSHSS(Aib)NFGPILPPTHVGSNTY-amide] (H-K([γGlu-C18 diacid])KCNTATCATQRLANFLSHSS[Aib]NFGPILPPTHVGSNTY-NH2; disulfide 3-8; N-terminus assumed) |
| 12 | 89 | 1100 | CC[C@H](C)[C@H](NC(=O)[C@@H]1CCCN1C(=O)CNC(=O)[C@H](Cc1ccccc1)NC(=O)[C@H](CC(N)=O)NC(=O)C(C)(C)NC(=O)[C@H](CO)NC(=O)[C@H](CO)NC(=O)[C@H](Cc1c[nH]cn1)NC(=O)[C@H](CO)NC(=O)[C@H](CC(C)C)NC(=O)[C@H](Cc1ccccc1)NC(=O)[C@H](CC(N)=O)NC(=O)[C@H](C)NC(=O)[C@H](CC(C)C)NC(=O)[C@H](CCCNC(=N)N)NC(=O)[C@H](CCC(N)=O)NC(=O)[C@@H](NC(=O)[C@H](C)NC(=O)[C@@H]1CSSC[C@H](NC(=O)[C@H](CCCCN)NC(=O)[C@@H](N)CCCCNC(=O)CC[C@H](NC(=O)CCCCCCCCCCCCCCCCC(=O)O)C(=O)O)C(=O)N[C@@H](CC(N)=O)C(=O)N[C@@H]([C@@H](C)O)C(=O)N[C@@H](C)C(=O)N[C@@H]([C@@H](C)O)C(=O)N1)[C@@H](C)O)C(=O)N[C@@H](CC(C)C)C(=O)N1CCC[C@H]1C(=O)N1CCC[C@H]1C(=O)N[C@H](C(=O)N[C@@H](CCCNC(=N)N)C(=O)N[C@H](C(=O)NCC(=O)N[C@@H](CO)C(=O)N[C@@H](CC(N)=O)C(=O)N[C@H](C(=O)N[C@@H](Cc1ccc(O)cc1)C(N)=O)[C@@H](C)O)C(C)C)[C@@H](C)O [Peptide 52, K(γE-C18diacid)K[CNTATC]ATQRLANFLSHSS(Aib)NFGPILPPTRVGSNTY-amide] (H-K([γGlu-C18 diacid])KCNTATCATQRLANFLSHSS[Aib]NFGPILPPTRVGSNTY-NH2; disulfide 3-8; N-terminus assumed) |
